Measurements reported in patent US12630547B2, “RAS protein degraders, pharmaceutical compositions thereof, and their therapeutic applications” (BioTheryX, Inc., priority 2019, dated 2026).
Like-named read-outs stand apart in the source and are kept apart here.

How the values were obtained:
Assay type in all cases: cell-based
[1] = test system: H358 cells; assay: Cell viability assay (CELLTITER-GLO), H358 cells; conditions: 3 days; for viability at 10 µM: Table 1, compound at 10 μM, read-out: Effect on H358 cell viability (% DMSO)
Procedure, shortened: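 H358 cells (RPMI 1640, 10% FBS), 4,000 per well, exposed to compound for 3 days at 37 °C, 5% CO2; viability by CellTiter-Glo luminescence. Single-dose viability as % DMSO at 10 or 1 μM, binned A (<10%) to D (≥50%); IC50 binned A (≤1 μM) to D (>10 μM).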

[2] = test system: H23 cells; assay: Cell viability assay (CELLTITER-GLO), H23 cells; conditions: Table 4, 3 days
Procedure, shortened: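 H23 cells in RPMI 1640 with 10% FBS, 4,000 cells/well, exposed to compound or DMSO for 3 days at 37° C, 5% CO2. Viability read by CellTiter-Glo luminescence after 10 min. IC50 reported in potency bins.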

[3] = test system: MV-4-11 cells; assay: Cell viability assay (CELLTITER-GLO), MV-4-11 cells; conditions: Homo sapiens, MV4-11, 72 h; Table 1; compound at 10 μM, 3 days; read-out: Effect on MV-4-11 cell viability (% DMSO)
Procedure: MOLM-13 cells, MV-4-11 cells, H23, and H358 cells were independently cultured in RPMI 1640 media supplemented with 10% fetal bovine serum, streptomycin and penicillin. The cells were plated in white walled 96-well plates at 4,000 cells/well. The cells were incubated in DMSO (control) or a compound for 3 days at 37° C. under 5% CO2. A CELLTITER-GLO® reagent (100 μL) was then added to each well. After a 10 min incubation with shaking, luminescence was measured using an ENVISION® multimode plate reader.
In Tables 1 and 2, each compound was tested at 10 μM; and in Table 3, each compound was tested at 1 μM. In Tables 1 to 3, the cell viability values as % DMSO are reported as “A,” “B,” “C,” or “D;” where “A” represents a % viability value of less than 10%; “B” represents a % viability value of no less than 10% and less than 25%; “C” represents a % viability value of no less than 25% and less than 50%; and “D” represents a % viability value of no less than 50%. Compound A is […]

[4] = test system: MOLM-13 cells; assay: Cell viability assay (CELLTITER-GLO), MOLM-13 cells; conditions: Homo sapiens, MOLM-13, 72 h, 3 days, read-out: Effect on MOLM-13 cell viability (% DMSO); for viability at 10 µM: compound at 10 μM; for viability at 1 µM: Table 3, compound at 1 μM
Procedure, shortened: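 MV-4-11 and MOLM-13 cells in RPMI 1640/10% FBS were seeded at 4,000 cells/well and exposed to compound (10 μM or 1 μM) or DMSO for 3 days at 37 °C, 5% CO2. CellTiter-Glo luminescence gave viability as % DMSO, binned into ranges A (<10%) through D (≥50%).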

[5] = molecular target: T1, KRAS protein (Homo sapiens, UniProt P01116, G12C); assay: Protein degradation assay (western blot) in H358 cells; conditions: 1 μM, 24 h
T1 construct: endogenous in cells; host or cells: H358 cells
T1 sequence (P01116 1-188 isoform P01116-2 G12C): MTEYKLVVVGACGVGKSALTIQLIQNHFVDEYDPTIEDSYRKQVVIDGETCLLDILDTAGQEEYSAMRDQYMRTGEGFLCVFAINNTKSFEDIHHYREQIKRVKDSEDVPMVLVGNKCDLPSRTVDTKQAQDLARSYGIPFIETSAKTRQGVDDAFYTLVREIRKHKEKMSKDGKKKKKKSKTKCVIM
Procedure: H358 cells were grown in RPMI 1640 media supplemented with 10% fetal bovine serum, streptomycin, and penicillin. The cells were plated in 10 cm plates in the growth media. The next day, the cells were rinsed in 1× PBS with the media replaced by RPMI1640 supplemented with 2.5% fetal bovine serum, streptomycin, and penicillin. The cells were then treated with 1 μM of a compound for 24 h. Whole cell extracts were prepared using an immunoprecipitation (IP) lysis buffer. Briefly, the cells were washed once in PBS, and the cell pellets were resuspended in the IP lysis buffer and incubated for 15 min on ice. Cells debris was removed by centrifugation and the cleared whole cell lysates were transferred to new tubes for further analysis.
For a western blot analysis, the whole cell protein extracts were separated on 12% SDS-polyacrylamide gels, transferred to nitrocellulose, and probed with primary antibodies. Membranes were subsequently washed and probed with IRDYE® secondary antibodies. The signals were detected using an ODYSSEY® Imaging System. The antibodies used in the assay included anti-KRAS; β-actin mouse monoclonal antibody; IRDYE® 680RD goat anti-rabbit antibody; and IRDYE® 800CW goat anti-mouse antibody.

Row | Structure (SMILES) | viability at 10 µM ([1]; Homo sapiens, NCI-H358, 72 h) [%] | IC50 ([1]; Homo sapiens, NCI-H358, 72 h, Table 4, read-out: Inhibition of H358 cells, IC50) [nM] | IC50 ([2]; Homo sapiens, NCI-H23, 72 h, read-out: Inhibition of H23 cells, IC50) [nM] | viability at 10 µM [3] [%] | viability at 10 µM ([4]; Table 1) [%] | viability at 1 µM [4] [%] | Inhibition of H358 cells, IC50 (class) ([1]; Table 4) | degradation of KRAS protein [5] | Inhibition of H23 cells, IC50 (class) [2] | viability at 10 µM ([4]; Table 2) [%]
1 | C=CC(=O)N1CCN(c2ncnc3c(F)c(-c4c(O)cccc4F)c(Cl)cc23)CC1 [A, 1-(4-(6-chloro-8-fluoro-7-(2-fluoro-6-hydroxyphenyl)quinazolin-4-yl)piperazin-1-yl)prop-2-en-1-one, reference compound] | 25 to 50 | 990 | 4300 | 25 to 50 | 25 to 50 | ≥ 50 | – | – | – | –
2 | C=CC(=O)N1CC(N2Cc3ccc(-c4cc(O)cc5ccccc45)cc3N(CCOCCOCCOCCNc3cccc4c3C(=O)N(C3CCC(=O)NC3=O)C4=O)C2=O)C1 (stereo not shown) [Compound 2, 4-((2-(2-(2-(2-(3-(1-Acryloylazetidin-3-yl)-7-(3-hydroxynaphthalen-1-yl)-2-oxo-3,4-dihydroquinazolin-1(2H)-yl)ethoxy)ethoxy)ethoxy)ethyl)amino)-2-(2,6-dioxopiperidin-3-yl)isoindoline-1,3-dione] | 10 to 25 | – | – | < 10 | 10 to 25 | – | – | – | – | –
3 | C=CC(=O)N1CCN(c2ncnc3c(F)c(-c4c(F)cccc4OCCCCCCCN4CCC(c5cc(F)cc6c5CN(C5CCC(=O)NC5=O)C6=O)CC4)c(Cl)cc23)CC1 (stereo not shown) [Compound 36, 3-(4-(1-(7-(2-(4-(4-Acryloylpiperazin-1-yl)-6-chloro-8-fluoroquinazolin-7-yl)-3-fluorophenoxy)heptyl)piperidin-4-yl)-6-fluoro-1-oxoisoindolin-2-yl)piperidine-2,6-dione] | – | – | – | – | – | – | A′ | about 60% | A′ | < 10
4 | C=CC(=O)N1CCN(c2ncnc3c(F)c(-c4c(F)cccc4OCCOCCOCCC(=O)NCCNc4cccc5c4C(=O)N(C4CCC(=O)NC4=O)C5=O)c(Cl)cc23)CC1 (stereo not shown) [Compound 1, 3-(2-(2-(2-(4-(4-Acryloylpiperazin-1-yl)-6-chloro-8-fluoroquinazolin-7-yl)-3-fluorophenoxy)ethoxy)ethoxy)-N-(2-((2-(2,6-dioxopiperidin-3-yl)-1,3-dioxoisoindolin-4-yl)amino)ethyl)propanamide] | 25 to 50 | – | – | 10 to 25 | 25 to 50 | ≥ 50 | C′ | – | C′ | –
5 | CCC(=O)N1CCN(c2ncnc3c(F)c(-c4c(F)cccc4OCCOCCOCCOCCNc4cccc5c4C(=O)N(C4CCC(=O)NC4=O)C5=O)c(Cl)cc23)CC1 (stereo not shown) [Compound 42, 4-((2-(2-(2-(2-(2-(6-Chloro-8-fluoro-4-(4-propionylpiperazin-1-yl)quinazolin-7-yl)-3-fluorophenoxy)ethoxy)ethoxy)ethoxy)ethyl)amino)-2-(2,6-dioxopiperidin-3-yl)isoindoline-1,3-dione] | – | – | – | – | – | – | D′ | – | D′ | ≥ 50
